PubChem BioAssay AID2060621 (Molecular Pharmacology Branch, DTP, NCI, 2025)

Test system: 324938-238-R-J1-PDC complex spheroids viability
Test: Anticancer human tumor 324938-238-R-J1-PDC patient-derived bladder carcinoma cell line growth inhibition [CLK]
Conditions: for IC50: curve of first compound; for viability, T/C: stronger effect = lower value
Source text: A high-throughput screen of multi-cell type tumor spheroids was designed to identify active combinations of […] and targeted small molecules. Complex spheroids include a stromal component modeled by human endothelial cells (HUVEC) and fibroblasts modeled by human mesenchymal stem cells (MSCs). The concentration ranges selected for each drug and investigational agent were based upon clinically achievable concentrations if the clinical Cmax of the agent was known.
Compounds. The drugs and investigational agents: cirtuvivint (SM08502; NSC835563), CC-671 (NSC850746), vemurafenib (NSC761431), tapotoclax (NSC804041), sotorasib (NSC818433), adagrasib (NSC831453), MRTX-1133 (NSC836407), BAY2416964 (NSC825713), copanlisib (NSC816437), inavolisib (NSC800729), abemaciclib (NSC768073), osimertinib (NSC779217), entinostat (NSC756642), eltanexor (KPT-8602, NSC794443), venetoclax (NSC766270), ceralasertib (NSC777638), bortezomib (NSC756655), olaparib (NSC753686), talazoparib (NSC767125), alisertib (NSC759677), peposertib (NSC802822), gemcitabine (NSC613327), 5-fluorouracil (NSC19893), SN-38 (NSC673596), oxaliplatin (NSC266046), paclitaxel (NSC125973), and doxorubicin (NSC123127), were obtained from the National Cancer Institute (NCI) Developmental Therapeutics Program Chemical Repository. The FDA-approved anticancer drug set is available from the Developmental Therapeutics Program at https://dtp.cancer.gov/organization/dscb/obtaining/available plates.htm. […] The stock solutions were prepared in dimethyl sulfoxide (DMSO, Sigma-Aldrich, St. Louis, MO, cat. D2650), except for the platinum complexes which were prepared in saline (Quality Biological, Gaithersburg, MD, cat. 114-055-101), at 800-fold the tested concentration and stored at -70 degrees C prior to their use. All drugs and investigational agents were tested over a range starting from a high concentration at or near the clinical Cmax and decreasing in half-log increments. If the clinical Cmax for an agent had not been determined, the highest concentration tested was 10 microM.
Cell Culture. All cells were maintained in an incubator at 37 degrees C and 5% CO2 with 95% humidity. The PDC lines were cultured according to standard operating procedures established by the NCI PDMR. Briefly, all PDCs were thawed and cultured in Matrigel-coated flasks prepared with a working solution of 1X Ham's F-12 nutrient mix, without supplementation (Invitrogen, Waltham, MA, cat. 11765054), 100 U/mL penicillin-streptomycin (Invitrogen, cat. 15140122), and 2.5% Matrigel (Corning Inc., Corning, NY, cat. 354248) for the first three passages. The 947758-054-R-J2-PDC line was cultured in 6B/Colon 1A media, which includes advanced DMEM/F-12 (Thermo Fisher Scientific, cat. 12634028), 10 mM HEPES (Thermo Fisher Scientific, cat. 15630080), 1X GlutaMAX supplement (Thermo Fisher Scientific, cat. 35050061), 0.1 mg/mL primocin (InvivoGen, cat. ant-pm-2), 10% defined fetal bovine serum, heat inactivated (HyClone Laboratories Inc., cat. SH30070.03HI), 1.25 mM N-Acetyl-L-cysteine (Sigma-Aldrich, cat. A9165), 10 mM nicotinamide (Sigma-Aldrich, cat. N0636), 1X B-27 supplement (Thermo Fisher Scientific, cat. 17504044), 1X N-2 supplement (Thermo Fisher Scientific, cat. 17502048), and 10 microM Y-27632 dihydrochloride (Tocris Bioscience, cat. 1254). The 876862-298-R-J1-PDC was cultured in 6E media, which includes all 6B/Colon 1A media components plus 50% L-WRN conditioned media (ATCC, cat. CRL-3276), 50 ng/mL recombinant human EGF recombinant protein (hEGF; Thermo Fisher Scientific, cat. PHG0311), 10 ng/mL recombinant human fibroblast growth factor 10 (hGFG-10; PeproTech, cat. 100-26), 1 ng/mL recombinant human fibroblast growth factor 2 (hFGF-2; PeproTech, cat. 100-18B), and 1 µM prostaglandin E2 (PGE2; Tocris, cat. 2296). The 227483-062-R1-J1-PDC line was cultured in Panc media, containing all 6E components except hFGF-2, with the addition of 500 nM SB-431542 (Selleckchem, cat. S1067) and 10 nM gastrin (Tocris, cat. 3006). […]

[1] = second compound 0.0316 µM, first compound 0.0316 µM
[2] = second compound 0.0316 µM, first compound 0.1 µM
[3] = second compound 0.0316 µM, first compound 0.316 µM
[4] = second compound 0.0316 µM, first compound 1 µM
[5] = second compound 0.0316 µM, first compound 3.16 µM
[6] = second compound 0.0316 µM, first compound 10 µM
[7] = second compound 0.1 µM, first compound 0.0316 µM
[8] = second compound 0.1 µM, first compound 0.1 µM
[9] = second compound 0.1 µM, first compound 0.316 µM
[10] = second compound 0.1 µM, first compound 1 µM
[11] = second compound 0.1 µM, first compound 3.16 µM
[12] = second compound 0.1 µM, first compound 10 µM
[13] = second compound 0.316 µM, first compound 0.0316 µM
[14] = second compound 0.316 µM, first compound 0.1 µM
[15] = second compound 0.316 µM, first compound 0.316 µM
[16] = second compound 0.316 µM, first compound 1 µM
[17] = second compound 0.316 µM, first compound 3.16 µM
[18] = second compound 0.316 µM, first compound 10 µM
[19] = second compound 1 µM, first compound 0.0316 µM
[20] = second compound 1 µM, first compound 0.1 µM
[21] = second compound 1 µM, first compound 0.316 µM
[22] = second compound 1 µM, first compound 1 µM
[23] = second compound 1 µM, first compound 3.16 µM
[24] = second compound 1 µM, first compound 10 µM
[25] = second compound 3.16 µM, first compound 0.0316 µM
[26] = second compound 3.16 µM, first compound 0.1 µM
[27] = second compound 3.16 µM, first compound 0.316 µM
[28] = second compound 3.16 µM, first compound 1 µM
[29] = second compound 3.16 µM, first compound 3.16 µM
[30] = second compound 3.16 µM, first compound 10 µM
[31] = second compound 10 µM, first compound 0.0316 µM
[32] = second compound 10 µM, first compound 0.1 µM
[33] = second compound 10 µM, first compound 0.316 µM
[34] = second compound 10 µM, first compound 1 µM
[35] = second compound 10 µM, first compound 3.16 µM
[36] = second compound 10 µM, first compound 10 µM
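Further: viability read after seven days of drug exposure.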
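Wherever viability, T/C is given: 100% = DMSO vehicle control wells.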

`C=C(F)C(=O)N1CCN(c2nc(OCC3CCCN3C)nc3c2CCN(c2cccc4cccc(Cl)c24)C3)CC1CC#N` (centres undefined) + CN1CCN(c2cc(C(=O)Nc3cc4cc(-c5cnn(C)c5)ccc4cn3)ccn2)CC1 was tested, and the IC50 (second compound 0.0316 µM) was 3120 nM, the IC50 (second compound 0.1 µM) was 1560 nM and the IC50 (second compound 0.316 µM) was < 31.6 nM. The IC50 (second compound 1 µM) was < 31.6 nM, the IC50 (second compound 3.16 µM) was < 31.6 nM and the IC50 (second compound 10 µM) was < 31.6 nM. The viability, T/C [1] was 75.2%, the viability, T/C [2] was 88.7% and the viability, T/C [3] was 81.8%. It also gave a viability, T/C [4] of 78.8%, a viability, T/C [5] of 49.6% and a viability, T/C [6] of 2.48%. The viability, T/C [7] was 60.9%, the viability, T/C [8] was 64% and the viability, T/C [9] was 57.3%. It also gave a viability, T/C [10] of 53.3%, a viability, T/C [11] of 43.3% and a viability, T/C [12] of 2.19%. It also gave a viability, T/C [13] of 25.4%, a viability, T/C [14] of 26.9% and a viability, T/C [15] of 22.3%. For the same compound, the viability, T/C [16] was 24.5%, the viability, T/C [17] was 19.6% and the viability, T/C [18] was 0.24%. It also gave a viability, T/C [19] of 2.43%, a viability, T/C [20] of 1.75% and a viability, T/C [21] of 2.24%. It also gave a viability, T/C [22] of 1.87%, a viability, T/C [23] of 0.88% and a viability, T/C [24] of 0.23%. It also gave a viability, T/C [25] of 0.21%, a viability, T/C [26] of 0.19% and a viability, T/C [27] of 0.24%. The viability, T/C [28] was 0.17%, the viability, T/C [29] was 0.33% and the viability, T/C [30] was 0.12%. The viability, T/C [31] was 0.34%, the viability, T/C [32] was 0.23% and the viability, T/C [33] was 0.23%. For the same compound, the viability, T/C [34] was 0.35%, the viability, T/C [35] was 0.2% and the viability, T/C [36] was 0.2%.
For `C=CC(=O)N1CCN(c2nc(=O)n(-c3c(C)ccnc3C(C)C)c3nc(-c4c(O)cccc4F)c(F)cc23)C(C)C1` (centres undefined) + CN1CCN(c2cc(C(=O)Nc3cc4cc(-c5cnn(C)c5)ccc4cn3)ccn2)CC1, the IC50 (second compound 0.0316 µM) was > 10000 nM, the IC50 (second compound 0.1 µM) was > 10000 nM and the IC50 (second compound 0.316 µM) was < 31.6 nM. For the same compound, the IC50 (second compound 1 µM) was < 31.6 nM, the IC50 (second compound 3.16 µM) was < 31.6 nM and the IC50 (second compound 10 µM) was < 31.6 nM. For the same compound, the viability, T/C [1] was 79.2%, the viability, T/C [2] was 77.8% and the viability, T/C [3] was 84.5%. For the same compound, the viability, T/C [4] was 103%, the viability, T/C [5] was 87.4% and the viability, T/C [6] was 82.7%. For the same compound, the viability, T/C [7] was 59.6%, the viability, T/C [8] was 61.4% and the viability, T/C [9] was 63.2%. The viability, T/C [10] was 64.8%, the viability, T/C [11] was 66.6% and the viability, T/C [12] was 59.9%. For the same compound, the viability, T/C [13] was 27.4%, the viability, T/C [14] was 25% and the viability, T/C [15] was 27.4%. The viability, T/C [16] was 28.9%, the viability, T/C [17] was 35.5% and the viability, T/C [18] was 27.8%. It also gave a viability, T/C [19] of 1.25%, a viability, T/C [20] of 1.85% and a viability, T/C [21] of 1.99%. The viability, T/C [22] was 1.7%, the viability, T/C [23] was 1.08% and the viability, T/C [24] was 0.78%. The viability, T/C [25] was 0.13%, the viability, T/C [26] was 0.25% and the viability, T/C [27] was 0.19%. For the same compound, the viability, T/C [28] was 0.16%, the viability, T/C [29] was 0.12% and the viability, T/C [30] was 0.25%. The viability, T/C [31] was 0.2%, the viability, T/C [32] was 0.19% and the viability, T/C [33] was 0.18%. The viability, T/C [34] was 0.15%, the viability, T/C [35] was 0.16% and the viability, T/C [36] was 0.33%.
